Measured values from ChEMBL document CHEMBL1146643, “Potential hypotensive agents: synthesis and hypotensive activity of oxime ethers derived from 1-naphthoxepines and related compounds” (2004).

Experiments:
Format in all cases: functional
Conditions in all cases: route intravenous
[1] = tested on: Felis catus; experiment: Percent of maximum effect in anaesthetized cat at a dose of 1 mg/kg intravenously
[2] = tested on: Felis catus; experiment: Fall of blood pressure in anaesthetized cat at a dose of 5 mg/kg intravenously
[3] = tested on: Felis catus; experiment: Percent of maximum effect in anaesthetized cat at a dose of 5 mg/kg intravenously
[4] = tested on: Felis catus; experiment: Fall of blood pressure in anaesthetized cat at a dose of 1 mg/kg intravenously

| Structure (SMILES) | Max effect [1] | Decrease in blood pressure [2] | Max effect [3] | Decrease in blood pressure [4] |
| --- | --- | --- | --- | --- |
| CCCNCC(O)CO/N=C1\CCCOc2c1ccc1ccccc21 (stereo not drawn) | 21% | 60 mmHg | 50% | 20 mmHg |
| CC(C)NCC(O)CO/N=C1\CCCOc2ccc3ccccc3c21 (stereo not drawn) | 7% | 80 mmHg | 70% | 10 mmHg |
| CCCNCC(O)CO/N=C1\CCCOc2ccc3ccccc3c21 (stereo not drawn) | 17% | 16 mmHg | 17% | 18 mmHg |
| CC(C)(C)NCC(O)CO/N=C1\CCCOc2c1ccc1ccccc21 (stereo not drawn) | 40% | 80 mmHg | 55% | 60 mmHg |
| CC(C)NCC(O)COc1cccc2ccccc12 (stereo not drawn) [PROPRANOLOL] | 35% | 50 mmHg | 41% | 46 mmHg |
| CC(C)(C)NCC(O)CO/N=C1\CCCOc2ccc3ccccc3c21 (stereo not drawn) | 21% | 50 mmHg | 41% | 18 mmHg |
| CC(C)NCC(O)CO/N=C1\CCCOc2c1ccc1ccccc21 (stereo not drawn) | 14% | 110 mmHg | 88% | 20 mmHg |
